Measured values reported in PubChem BioAssay AID268 (DTP/NCI, 2004).
Several values for one entry are separate records, joined by “and”; a condition that tells them apart may be missing. Equal entries are not always repeated.

System: CD2F1 mice, P1798 lymphosarcoma sc, tumor weight T/C
Assay: NCI In Vivo Anticancer Drug Screen. Data for tumor model P1798 Lymphosarcoma (subcutaneous) in CD2F1 (CDF1) mice
Settings: endpoint: mean tumor weight, higher = larger tumour
Protocol: The antitumor activity of compounds was measured in mice bearing transplantable tumors. Survival or tumor size were measured and the results are expressed as the measurement made in the treated group (T) divided by the measurement made in the vehicle treated control group (C). The tumor model used in this assay is P1798 Lymphosarcoma (subcutaneous) in CD2F1 (CDF1) mice

[1] = dose: 12.5 mg/kg/injection, schedule: Q01DX010 (sc), vehicle: steriod suspending solution
[2] = dose: 0.5 mg/kg/injection, schedule: Q01DX010 (ip), vehicle: saline
[3] = dose: 1.0 mg/kg/injection, schedule: Q01DX010 (ip), vehicle: saline
[4] = dose: 2.0 mg/kg/injection, schedule: Q01DX010 (ip), vehicle: saline
[5] = dose: 3.0 mg/kg/injection, schedule: Q01DX010 (ip), vehicle: saline
[6] = dose: 4.0 mg/kg/injection, schedule: Q01DX010 (ip), vehicle: saline
[7] = dose: 100.0 mg/kg/injection, schedule: Q01DX010 (ip), vehicle: saline
[8] = dose: 200.0 mg/kg/injection, schedule: Q01DX010 (ip), vehicle: saline
[9] = dose: 0.25 mg/kg/injection, schedule: Q01DX010 (ip), vehicle: saline
[10] = dose: 1.5 mg/kg/injection, schedule: Q01DX010 (ip), vehicle: saline
[11] = dose: 12.0 mg/kg/injection, schedule: Q01DX010 (ip), vehicle: saline
[12] = dose: 8.0 mg/kg/injection, schedule: Q01DX010 (ip), vehicle: saline
[13] = dose: 25.0 mg/kg/injection, schedule: Q01DX010 (ip), vehicle: saline
[14] = dose: 50.0 mg/kg/injection, schedule: Q01DX010 (ip), vehicle: saline
[15] = dose: 12.5 mg/kg/injection, schedule: Q01DX010 (ip), vehicle: saline
[16] = dose: 15.0 mg/kg/injection, schedule: Q01DX010 (ip), vehicle: saline
[17] = dose: 30.0 mg/kg/injection, schedule: Q01DX010 (ip), vehicle: saline

C[C@]12CC[C@@H]3c4ccc(O)cc4CC[C@H]3[C@@H]1C[C@H](O)C2 was tested, and the T/C (dose: 6.25 mg/kg/injection, schedule: Q01DX010 (sc), vehicle: steriod suspending solution) was 102 % of control, the T/C [1] was 95 % of control and 109 % of control and the T/C (dose: 50.0 mg/kg/injection, schedule: Q01DX010 (sc), vehicle: steriod suspending solution) was 111 % of control and 112 % of control.

In the case of O=C1C=Cc2ccc(O)cc2C1=O, the T/C (dose: 1.25 mg/kg/injection, schedule: Q01DX010 (ip), vehicle: saline) is reported as 72 % of control and the T/C (dose: 2.5 mg/kg/injection, schedule: Q01DX010 (ip), vehicle: saline) is reported as 63 % of control.

For Nc1nc(F)nc2c1ncn2C1OC(CO)C(O)C1O (configuration not stated), the T/C [2] was 76 % of control, the T/C [3] was 94 % of control and the T/C [4] was 73 % of control. The T/C [5] was 62 % of control and the T/C [6] was 35 % of control.

N#CCCCCCNC(=O)CCCCC(=O)NCCCCCC#N was tested, and the T/C [7] was 85 % of control, the T/C [8] was 111 % of control and the T/C (dose: 400.0 mg/kg/injection, schedule: Q01DX010 (ip), vehicle: saline) was 87 % of control.

For CC(=O)[C@@]12OC(C)(C)O[C@@H]1C[C@H]1[C@@H]3C[C@H](C)C4=CC(=O)CC[C@]4(C)[C@H]3CC[C@@]12C, the T/C (dose: 12.5 mg/kg/injection, schedule: Q01DX005 (sc), vehicle: steriod suspending solution) was 72 % of control, the T/C [1] was 64 % of control and the T/C (dose: 25.0 mg/kg/injection, schedule: Q01DX005 (sc), vehicle: steriod suspending solution) was 61 % of control. The T/C (dose: 25.0 mg/kg/injection, schedule: Q02DX010 (sc), vehicle: steriod suspending solution) was 95 % of control, the T/C (dose: 25.0 mg/kg/injection, schedule: Q03DX004 (sc), vehicle: steriod suspending solution) was 56 % of control and the T/C (dose: 50.0 mg/kg/injection, schedule: Q01DX005 (sc), vehicle: steriod suspending solution) was 38 % of control. For the same compound, the T/C (dose: 50.0 mg/kg/injection, schedule: Q02DX010 (sc), vehicle: steriod suspending solution) was 88 % of control, the T/C (dose: 50.0 mg/kg/injection, schedule: Q03DX004 (sc), vehicle: steriod suspending solution) was 59 % of control and the T/C (dose: 100.0 mg/kg/injection, schedule: Q01DX005 (sc), vehicle: steriod suspending solution) was 13 % of control. For the same compound, the T/C (dose: 100.0 mg/kg/injection, schedule: Q02DX010 (sc), vehicle: steriod suspending solution) was 93 % of control and the T/C (dose: 100.0 mg/kg/injection, schedule: Q03DX004 (sc), vehicle: steriod suspending solution) was 16 % of control.

For COc1cc(C[C@H]2c3cc(OC)c(OC)cc3CCN2C)c(Oc2cc3c(cc2OC)-c2c(OC)c(OC)cc4c2[C@H](C3)N(C)CC4)cc1OC, the T/C (dose: 50.0 mg/kg/injection, schedule: Q01DX011 (ip), vehicle: carboxymethylcellulose (CMC)) was 13 % of control.

Nc1ccn(C2OC(CO)C(O)C2O)c(=O)n1 (configuration not stated) was tested, and the T/C (dose: 10.0 mg/kg/injection, schedule: Q01DX010 (ip), vehicle: saline) was 12 % of control, the T/C (dose: 18.0 mg/kg/injection, schedule: Q01DX010 (ip), vehicle: saline) was 31 % of control and the T/C (dose: 20.0 mg/kg/injection, schedule: Q01DX010 (ip), vehicle: saline) was 10 % of control. The T/C (dose: 27.0 mg/kg/injection, schedule: Q01DX010 (ip), vehicle: saline) was 12 % of control, the T/C (dose: 40.0 mg/kg/injection, schedule: Q01DX010 (ip), vehicle: saline) was 4 % of control and 6 % of control and the T/C (dose: 60.0 mg/kg/injection, schedule: Q01DX010 (ip), vehicle: saline) was 1 % of control.

CC(=O)OC(C)(C)/C=C/C(=O)[C@](C)(O)[C@H]1[C@H](O)C[C@@]2(C)[C@@H]3CC=C4[C@@H](C[C@H](O)C(=O)C4(C)C)[C@]3(CO)C(=O)C[C@]12C was tested, and the T/C (dose: 0.16 mg/kg/injection, schedule: Q01DX010 (ip), vehicle: saline) was 108 % of control, the T/C [9] was 110 % of control and the T/C (dose: 0.38 mg/kg/injection, schedule: Q01DX010 (ip), vehicle: saline) was 104 % of control.

For Nc1nc(N)c2nc(CNc3ccc(C(=O)NC(CCC(=O)O)C(=O)O)cc3)cnc2n1 (configuration not stated), the T/C (dose: 50.0 micrograms/kg/injection, schedule: Q01DX010 (ip), vehicle: other) was 110 % of control, the T/C (dose: 100.0 micrograms/kg/injection, schedule: Q01DX010 (ip), vehicle: other) was 100 % of control and the T/C (dose: 200.0 micrograms/kg/injection, schedule: Q01DX010 (ip), vehicle: other) was 79 % of control.

With COc1ccc2cc3[n+](cc2c1OC)CCc1cc2c(cc1-3)OCO2 the T/C (dose: 12.0 mg/kg/injection, schedule: Q01DX011 (ip), vehicle: saline) was 75 % of control.

For Nc1ncnc2[nH]ncc12, the T/C [10] was 84 % of control and 88 % of control, the T/C [5] was 73 % of control and 88 % of control and the T/C [11] was 43 % of control.

In the case of c1ccc(COCC[P+](c2ccccc2)(c2ccccc2)c2ccccc2)cc1, the T/C [5] is reported as 76 % of control, the T/C (dose: 5.0 mg/kg/injection, schedule: Q01DX010 (ip), vehicle: saline) is reported as 98 % of control and the T/C [12] is reported as 88 % of control. For the same compound, the T/C [11] was 33 % of control.

With N=C(N)c1ccc(Nc2ccc(C(=N)N)cc2)cc1 the T/C [10] was 85 % of control, the T/C [5] was 82 % of control and the T/C (dose: 6.0 mg/kg/injection, schedule: Q01DX010 (ip), vehicle: saline) was 119 % of control. For the same compound, the T/C [11] was 77 % of control.

In the case of [N-]=[N+]=CC(=O)CCC(N)C(=O)O (configuration not stated), the T/C (dose: 0.01 mg/kg/injection, schedule: Q01DX010 (ip), vehicle: saline) is reported as 102 % of control, the T/C (dose: 0.03 mg/kg/injection, schedule: Q01DX010 (ip), vehicle: saline) is reported as 89 % of control and the T/C (dose: 0.05 mg/kg/injection, schedule: Q01DX010 (ip), vehicle: saline) is reported as 100 % of control. The T/C (dose: 0.1 mg/kg/injection, schedule: Q01DX010 (ip), vehicle: saline) was 108 % of control.

For NC(=O)n1cccn1, the T/C [13] was 84 % of control, the T/C [14] was 75 % of control and the T/C [7] was 71 % of control. The T/C [8] was 45 % of control.

In the case of CSc1ncnc2nc[nH]c12, the T/C [13] is reported as 100 % of control and 78 % of control, the T/C [14] is reported as 81 % of control and 86 % of control and the T/C [7] is reported as 94 % of control and 70 % of control. For the same compound, the T/C [8] was 61 % of control and 64 % of control.

For CCN(CC)CCNc1ccc(C)c2sc3ccccc3c(=O)c12, the T/C [15] was 76 % of control, the T/C [13] was 31 % of control and 43 % of control and the T/C [14] was 10 % of control and 29 % of control. The T/C [7] was 10 % of control.

CC(CCC(C)OS(C)(=O)=O)OS(C)(=O)=O (configuration not stated) was tested, and the T/C [4] was 101 % of control, the T/C [6] was 59 % of control and 78 % of control and the T/C [12] was 101 % of control and 82 % of control.

With CC1(O)CCC2C3CCC4=CC(=O)CCC4C3CCC21C (configuration not stated) the T/C (dose: 125.0 mg/kg/injection, schedule: Q01DX010 (sc), vehicle: steriod suspending solution) was 83 % of control, the T/C (dose: 250.0 mg/kg/injection, schedule: Q01DX010 (sc), vehicle: steriod suspending solution) was 81 % of control and the T/C (dose: 500.0 mg/kg/injection, schedule: Q01DX010 (sc), vehicle: steriod suspending solution) was 80 % of control. For the same compound, the T/C (dose: 1000.0 mg/kg/injection, schedule: Q01DX010 (sc), vehicle: steriod suspending solution) was 67 % of control.

Nc1nc2n[nH]nc2c(=O)[nH]1 was tested, and the T/C (dose: 25.0 mg/kg/injection, schedule: Q01DX010 (ip), vehicle: alkali diluted with saline) was 119 % of control, the T/C (dose: 50.0 mg/kg/injection, schedule: Q01DX010 (ip), vehicle: alkali diluted with saline) was 64 % of control and the T/C (dose: 100.0 mg/kg/injection, schedule: Q01DX010 (ip), vehicle: alkali diluted with saline) was 42 % of control and 49 % of control. For the same compound, the T/C (dose: 200.0 mg/kg/injection, schedule: Q01DX010 (ip), vehicle: alkali diluted with saline) was 15 % of control and 29 % of control and the T/C (dose: 400.0 mg/kg/injection, schedule: Q01DX010 (ip), vehicle: alkali diluted with saline) was 2 % of control.

In the case of Nc1nncs1, the T/C (dose: 1.88 mg/kg/injection, schedule: Q01DX010 (ip), vehicle: saline) is reported as 93 % of control, the T/C (dose: 3.75 mg/kg/injection, schedule: Q01DX010 (ip), vehicle: saline) is reported as 68 % of control and the T/C (dose: 7.5 mg/kg/injection, schedule: Q01DX010 (ip), vehicle: saline) is reported as 69 % of control. For the same compound, the T/C [16] was 52 % of control and 59 % of control and the T/C [17] was 7 % of control.

For NC(Cc1c[nH]c2ccc(N(CCCl)CCCl)cc12)C(=O)O (configuration not stated), the T/C [9] was 106 % of control, the T/C [2] was 97 % of control and the T/C [3] was 40 % of control. For the same compound, the T/C [4] was 13 % of control.

CS(=O)(=O)OCCC(=O)N1CCN(C(=O)CCOS(C)(=O)=O)CC1 was tested, and the T/C [15] was 77 % of control, the T/C [13] was 71 % of control and the T/C [14] was 7 % of control. The T/C [7] was 4 % of control.

In the case of CCc1c(CC(=O)O)c2cc(C)ccc2n1Cc1ccc(Cl)cc1, the T/C [15] is reported as 120 % of control, the T/C [13] is reported as 87 % of control and the T/C [14] is reported as 54 % of control.

CS(=O)(=O)OCCN(CCOS(C)(=O)=O)c1ccc(N=O)cc1 was tested, and the T/C [9] was 92 % of control and the T/C [3] was 69 % of control.

With CN(C)[C@@H]1C(=O)C(C(N)=O)=C(O)[C@@]2(O)C(=O)C3=C(O)c4c(O)cccc4C[C@H]3C[C@@H]12 the T/C [16] was 124 % of control and the T/C [17] was 106 % of control.
